Read-outs that look alike come from different tables or passages of the source.
What was measured:
[1] = system: Clostridium difficile hypervirulent ribotype 027 (RT027) strains; assay: drug sensitivity test, resistance rate of 269 RT027 strains; format: cell-based; conditions: for Resistance rate to Category 1 (56 strains) / Resistance rate to Category 2 (23 strains) / Resistance rate to Category 3 (190 strains): 269 RT027 strains; for Resistance rate to Category 2 (23 strains): Category 2 (sensitive branch); for Average resistance rate: all 269 RT027 strains
[2] = system: Clostridium difficile clade2 strains; format: cell-based; conditions: for Resistance rate to Category 1 (70 strains) / Resistance rate to Category 2 (96 strains) / Resistance rate to Category 3 (217 strains): 383 clade2 strains; for Average resistance rate: all 383 clade2 strains

SMILES | Resistance rate to Category 1 (56 strains) [1] | Resistance rate to Category 2 (23 strains) [1] | Resistance rate to Category 2 (23 strains) ([1]; listed as vancomycin) | Resistance rate to Category 3 (190 strains) [1] | Resistance rate to Category 3 (190 strains) ([1]; listed as vancomycin) | Average resistance rate [1] | Resistance rate to Category 1 (70 strains) [2] | Resistance rate to Category 2 (96 strains) [2] | Resistance rate to Category 2 (96 strains) ([2]; listed as vancomycin) | Resistance rate to Category 3 (217 strains) [2] | Resistance rate to Category 3 (217 strains) ([2]; listed as vancomycin) | Average resistance rate [2] | Resistance rate to Category 2 (23 strains) ([1]; listed as metronidazole) | Resistance rate to Category 2 (96 strains) ([2]; listed as metronidazole)
CN[C@H](CC(C)C)C(=O)N[C@H]1C(=O)N[C@@H](CC(N)=O)C(=O)N[C@H]2C(=O)N[C@H]3C(=O)N[C@H](C(=O)N[C@H](C(=O)O)c4cc(O)cc(O)c4-c4cc3ccc4O)[C@H](O)c3ccc(c(Cl)c3)Oc3cc2cc(c3O[C@@H]2O[C@H](CO)[C@@H](O)[C@H](O)[C@H]2O[C@H]2C[C@](C)(N)[C@H](O)[C@H](C)O2)Oc2ccc(cc2Cl)[C@H]1O [Vancomycin, vancomycin] | 94.64% | 21.74% | 21.74% | 21.05% | 21.05% | 36.43% | 92.86% | 30.21% | 30.21% | 22.58% | 22.58% | 37.34% |  | 
Cc1ncc([N+](=O)[O-])n1CCO [Metronidazole, metronidazole] | 51.79% | 0.0% |  | 47.37% |  | 44.24% | 52.86% | 3.13% |  | 48.39% |  | 37.86% | 0.0% | 3.03%
